# Assay results: US9040717B2, “Pyrazole-amide compounds and pharmaceutical use thereof” (JAPAN TOBACCO INC., priority 2013, dated 2015)
# Legend:
# liver PDH activity = experiment: Ex vivo PDH activation assay, liver; type: in vivo, Sprague-Dawley rats; conditions: non-fasting SD rats, vehicle 13 ± 3, mean ± S.D. (n = 3)
# Protocol: (§1) The action of test compound on tissue PDH activity was evaluated. NADH production was detected via p-iodonitrotetrazolium violet (INT)-coupled system to measure PDH activity.
# (§2) Normal male Sprague-Dawley rats were randomly allocated to the vehicle group and the test compound groups. The vehicle (0.5% aqueous methylcellulose solution, 5 mL/kg) or the test compound was orally administered to the rats. At 5 or 20 hr after administration, the rats were anesthetized with an intraperitoneal injection of sodium pentobarbital (60 mg/kg), and liver slices and epididymal adipose tissues were collected.
# (§3) To the liver slices were rapidly added 9 volumes of ice-cold homogenization buffer (0.25 mol/L sucrose, 5 mmol/L tris(hydroxymethyl)aminomethane hydrochloride (pH 7.5), 2 mmol/L EDTA), and the mixtures were homogenized using a Polytron homogenizer. The homogenates were centrifuged at 600×g, 4° C. for 10 min to obtain the supernatant. The supernatants (1 mL) were centrifuged at 16,000×g, 4° C. for 10 min to collect the precipitates. The precipitates were washed by resuspension in the homogenization buffer (1 mL) and centrifuged in the same manner. The precipitates were frozen with liquid nitrogen and stored at −80° C. as the liver mitochondrial fraction.
# (§4) The mitochondrial fractions were thawed and suspended with the sample buffer (0.25 mol/L sucrose, 20 mmol/L tris(hydroxymethyl)aminomethane hydrochloride (pH 7.5), 50 mmol/L potassium chloride, and 1 mL/L 4-(1,1,3,3-tetramethylbutyl)phenyl-polyethylene glycol (Triton X-100)). Active PDH activity (PDHa activity) and total PDH activity (PDHt activity) were measured to evaluate the PDH activity. For the measurement of the PDHt activity, equal amounts of the mitochondrial suspension and the activation buffer (0.25 mol/L sucrose, 20 mmol/L tris(hydroxymethyl)aminomethane hydrochloride (pH 7.5), 50 mmol/L potassium chloride, 1 mL/L Triton X-100, 4 mmol/L calcium chloride, 40 mmol/L magnesium chloride, 10 mmol/L sodium dichloroacetate) were mixed, and the mixtures were incubated at 37° C. for 10 min. Forty microliters of the mitochondrial suspensions diluted with a sample buffer were added to a 96-well microplate for activity measurement and blank measurement. Then 180 μL of the reaction mixture (0.056 mmol/L potassium phosphate buffer (pH 7.5), 5.6 mmol/L DL-carnitine, 2.8 mmol/L NAD, 0.22 mmol/L thiamin pyrophosphate, 0.11 mmol/L Coenzyme A, 1.1 mL/L Triton X-100, 1.1 mmol/L magnesium chloride, 1.1 g/L bovine serum albumin, 0.67 mmol/L INT, 7.2 μmol/L phenazine methosulfate, 28 mmol/L sodium oxamate) was added to each well, and then 20 μL of 50 mmol/L sodium pyruvate for activity measurement or water for blank measurement were added. The mixtures were incubated at room temperature under shading. The absorbances at 500-750 nm, which were attributable to reduction of INT, the final electron acceptor, were measured using a microplate reader over time and the changes in the absorbance were calculated. The PDH activity was calculated by subtraction of the change in absorbance of the blank well from that of the activity measurement well. The percentage of the PDHa activity to the PDHt activity was calculated and taken as an index of the PDH activation.
# [1] = test system: adipose tissue PDH activity; experiment: Ex vivo PDH activation assay, adipose tissue; type: in vivo, Sprague-Dawley rats; conditions: non-fasting SD rats, vehicle 31 ± 10, mean ± S.D. (n = 3)
# Protocol: as §1, §2
# as §3, with “adipose tissues” for “liver slices”, “3” for “9”, “of an” for “of”, “buffer,” for “buffer (0.25 mol/L sucrose, 5 mmol/L tris(hydroxymethyl)aminomethane hydrochloride (pH 7.5), 2 mmol/L EDTA),”, “supernatants” for “supernatants (1 mL)”, “adipose tissue” for “liver”
# as §4
# [2] = target: hERG current in hERG-transfected HEK293 cells (Homo sapiens (Human), UniProt Q12809); experiment: hERG whole cell patch clamp test; type: cell-based
# hERG current in hERG-transfected HEK293 cells, sequence (Q12809 whole entry): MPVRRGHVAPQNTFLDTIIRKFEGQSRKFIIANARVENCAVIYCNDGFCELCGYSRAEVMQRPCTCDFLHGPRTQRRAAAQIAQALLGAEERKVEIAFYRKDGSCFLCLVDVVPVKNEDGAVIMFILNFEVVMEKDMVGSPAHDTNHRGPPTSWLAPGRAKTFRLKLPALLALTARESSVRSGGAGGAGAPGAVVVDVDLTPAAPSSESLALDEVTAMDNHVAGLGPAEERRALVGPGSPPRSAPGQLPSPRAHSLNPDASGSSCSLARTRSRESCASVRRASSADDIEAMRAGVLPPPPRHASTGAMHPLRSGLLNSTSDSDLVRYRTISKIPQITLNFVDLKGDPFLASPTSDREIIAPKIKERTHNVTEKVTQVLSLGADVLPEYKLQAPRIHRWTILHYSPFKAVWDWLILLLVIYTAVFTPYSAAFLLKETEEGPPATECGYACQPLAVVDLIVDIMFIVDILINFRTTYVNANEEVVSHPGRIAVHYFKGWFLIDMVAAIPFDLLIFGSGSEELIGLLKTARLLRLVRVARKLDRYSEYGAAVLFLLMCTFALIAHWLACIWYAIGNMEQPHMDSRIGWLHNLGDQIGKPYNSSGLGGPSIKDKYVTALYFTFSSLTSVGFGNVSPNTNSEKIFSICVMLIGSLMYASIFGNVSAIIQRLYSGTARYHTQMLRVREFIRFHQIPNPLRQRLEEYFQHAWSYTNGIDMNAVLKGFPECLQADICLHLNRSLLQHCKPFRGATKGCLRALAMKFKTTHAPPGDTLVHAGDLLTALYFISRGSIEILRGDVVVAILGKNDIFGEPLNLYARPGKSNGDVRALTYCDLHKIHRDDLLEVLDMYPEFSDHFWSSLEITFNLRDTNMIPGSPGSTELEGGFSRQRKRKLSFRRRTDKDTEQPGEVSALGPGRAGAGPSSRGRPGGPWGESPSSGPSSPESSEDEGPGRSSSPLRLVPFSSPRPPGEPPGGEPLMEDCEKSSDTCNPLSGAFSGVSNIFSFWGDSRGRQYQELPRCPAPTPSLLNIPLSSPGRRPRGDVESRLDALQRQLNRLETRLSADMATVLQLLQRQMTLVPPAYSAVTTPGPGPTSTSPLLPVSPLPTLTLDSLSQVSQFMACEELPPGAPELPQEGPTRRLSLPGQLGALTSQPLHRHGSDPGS
# Protocol: Using human ether-a-go-go related gene (hERG)-transfected HEK293 cells (Cytomyx Limited), an influence on hERG current was examined according to the whole cell patch clamp technique. The hERG-transfected HEK293 cells were passaged using a CO2 incubator (BNA-111, TABAI ESPEC CORP.) under the set conditions of 37° C., 5% CO2, saturated humidity. Culture containers used were Collagen Type I Coated 75 cm^2 flask (4123-010, AGC TECHNO GLASS CO., Ltd.) and Collagen Type I Coated 35 mm culture dish (4000-010, AGC TECHNO GLASS CO., Ltd.). The culture medium used was E-MEM (Eagle Minimum Essential Medium (Earle's Salts, Nikken biomedical laboratory) added with 10% FCS (Fetal calf serum, BioWest, L.L.C.) and 1% MEM Non-Essential Amino Acids Solution (NEAA, Invitrogen Corporation). Geneticin for the selection of hERG gene expressing cells was added thereto to a concentration of 400 μg/mL. As the cells for the measurement, 3×10^4 hERG-transfected HEK293 cells were plated on a 35 mm culture dish 4 to 7 days before measurement of the hERG current. The culture dish produced for the measurement contained the above-mentioned culture medium without geneticin (Invitrogen Corporation).
# The highest evaluation concentration of each compound was determined from the highest concentration at which precipitation was not found in the standard extracellular fluid (NaCl: 140 mmol/L, KCl: 2.5 mmol/L, MgCl2:2 mmol/L, CaCl2: 2 mmol/L, HEPES: 10 mmol/L, glucose: 10 mmol/L (adjusted to pH 7.4 with Tris-base)). As the application method, each solution to be applied was ejected from a Y-tube having a tip diameter of about 0.25 mm, which was adjacent (about 2 mm) to the cells, and applied to the cells. The ejection rate was about 0.4 mL/min.
# The experiment was performed at room temperature under a phase contrast microscope. The 35 mm culture dish plated with the cells was set on a measurement apparatus, and the standard extracellular fluid was continuously applied to the cells from the Y-tube. A glass electrode for the measurement was filled with an intracellular fluid (Potassium Gluconate: 130 mmol/L, KCl: 20 mmol/L, MgCl2: 1 mmol/L, ATP-Mg: 5 mmol/L, EGTA: 3.5 mmol/L, HEPES: 10 mmol/L (adjusted to pH 7.2 with Tris-base)). A conventional whole cell patch clamp method was applied to the cells, and the maintenance electric potential was set to −80 mV. Under a fixed electric potential, the whole cell current was amplified by an amplifier for patch clamp (AXOPATCH-200B, Axon Instruments, Inc.), and the data was loaded into a computer (IMC-P642400, Intermedical Co., Ltd.) using a data acquisition analysis software (pCLAMP 9.2, Axon Instruments, Inc.).
# The measurement of the hERG current was performed in the following two steps. In both cases, the hERG current was initiated by giving a command potential (maintenance electric potential −80 mV, prepulse +20 mV, 1.5 sec, test-pulse −50 mV, 1.5 sec).
# Step (1): The above-mentioned command potential was given at 0.1 Hz for 2 min.
# Step (2): The above-mentioned command potential was subjected to P/3 subtraction of pCLAMP 9.2 to remove leak current. This was repeated three times and an average thereof was taken as hERG current.
# Subsequent to step (1), Step (2) was performed (about 3 min), and the maximum tail current obtained by applying a test-pulse to the hERG current obtained by the method of step (2) was taken as hERG current value. Hereafter, the operations of (1) and (2) were alternately repeated until completion of the experiment and the hERG current value was measured.
# Stable hERG current value was recorded three times (about 10 min), and the standard extracellular fluid was instantaneously exchanged with each application fluid. The hERG current value was measured three times (about 10 min) in the same manner during perfusion of the application fluid, and the current value obtained by the 3rd measurement was taken as hERG current value after perfusion of the application fluid. […]
# [3] = Table 2, 5 hr after oral 3 mg/kg
# [4] = Table 2, 20 hr after oral 3 mg/kg
SMILES,PDHa activity (% of PDHt activity) (liver PDH activity; [3]),PDHa activity (% of PDHt activity) (liver PDH activity; [4]),"PDHa activity (% of PDHt activity) [1, 3]","PDHa activity (% of PDHt activity) [1, 4]",hERG current Inhibition rate (%) ([2]; 3 μmol/L),hERG current Inhibition rate (%) ([2]; 30 μmol/L)
"CC(C)(O)COc1cc(-c2cnn(CCO)c2)c2c(c1)[C@@](O)(C(F)(F)F)c1ccccc1-2 [Compound (C), (9R)-4-[1-(2-Hydroxyethyl)-1H-pyrazol-4-yl]-2-(2-hydroxy-2-methylpropoxy)-9-(trifluoromethyl)-9H-fluoren-9-ol]",44 ± 5 % of PDHt activity,13 ± 3 % of PDHt activity,53 ± 4 % of PDHt activity,28 ± 7 % of PDHt activity,11.5%,69.0%
"CC(C)(C(N)=O)n1cc(-c2cc(F)cc3c2-c2ccccc2[C@]3(O)C(F)(F)F)cn1 [Compound (D), 2-{4-[(9R)-2-Fluoro-9-hydroxy-9-(trifluoromethyl)-9H-fluoren-4-yl]-1H-pyrazol-1-yl}-2-methylpropanamide]",41 ± 15 % of PDHt activity,20 ± 1 % of PDHt activity,43 ± 7 % of PDHt activity,24 ± 3 % of PDHt activity,9.4%,67.5%
